Literature values as cited in patent publication US7659264B2, “CGRP receptor antagonists” (Merck Sharp & Dohme Corp., priority 2004, dated 2010).
Where no end group is shown, it is not given here.

Columns and labels:
[1] = tested on: migraine; details: clinical studies, intravenously administered
[2] = tested on: facial blood flow; details: marmoset, electrical stimulation of the trigeminal ganglion
[3] = tested on: diameter of the middle meningeal artery; details: rats, electrical stimulation of the dura mater, prior administration
[4] = tested on: facial blood flow; details: rat, trigeminal ganglion stimulation

Compound | acute treatment for migraine [1] | effect on increase in facial blood flow [2] | effect on increased diameter of the middle meningeal artery [3] | effect on increased facial blood flow [4]
NCCCC[C@H](NC(=O)[C@@H](Cc1cc(Br)c(O)c(Br)c1)NC(=O)N1CCC(N2Cc3ccccc3NC2=O)CC1)C(=O)N1CCN(c2ccncc2)CC1 [BIBN4096BS] | safe and effective acute treatment for migraine | could be blocked | – | –
CGRP(8-37): a peptide CGRP antagonist; fragment of CGRP that lacks seven N-terminal amino acid residues (VTHRLAGLLSRSGGVVKNNFVPTNVGSKAF; ends and bridges not checked; UniProt P06881 90-119, looked up, fragment) | – | – | blocked | inhibited
